Test system: children up to 5 years of age
Assay: Cross-sectional correlation (GLM) of formula nutrient composition with brain myelination
Type: in vivo, human
Conditions: for Nutritional driver for myelination in the final general linear model: 5 most used formulas, voxel-wise correlations, p<0.05 corrected, inter-variable correlation threshold 0.9
Procedure: MRI brain scans of infants and children between 0 and 5 years were acquired using a white matter imaging technique. This technique provides a quantitative measure, the Myelin Water Fraction (MWF), which is a surrogate marker of myelin content. When mapped as a function of time across early childhood, myelination trajectories can be generated.
Infant formula composition: six infant formulas fed to infants participating in study were analyzed for their composition/level of myelin-relevant nutrients.
Each infant was scanned using the mcDESPOT (multicomponent Driven Equilibrium Single Pulse Observation of T1 and T2) white matter imaging technique Deoni et al. (Magn. Reson. Med. 2008, 60:1372-1387), which provides a quantitative measure of the myelin water fraction (MWF) at each imaging point throughout the brain. All infants were scanned during natural (i.e. non-sedated) sleep using acoustically-muffled mcDESPOT imaging protocols. Total imaging times ranged from 19 minutes for the youngest toddlers to 24 minutes for the older 4 year-old children.
Following image alignment, non-brain signal removal, and correction for main and transmit magnetic field (B0 and B1) inhomogeneities, a three-pool signal model (comprising the myelin-associated water; intra-extra axonal water; and a non-exchanging free-water pool) was fit to the mcDESPOT data to derive voxel-wise MWF maps.
Each child's map was then non-linearly aligned to a study specific template. White matter masks, corresponding to 5 bilateral regions (frontal, temporal, occipital, parietal, and cerebellar WM) as well as the body, genu, and splenium of the corpus callosum were created from common databases, registered to the common template, and superimposed onto each child's MWF map. Mean values for each region were then determined for each child and used for subsequent developmental analysis and trajectory modeling.
From the cohort described above, children up to 5 years of age that were fed different infant formulas during infancy were included in a large correlation analysis to examine the relationship between formula nutrient composition and brain myelination. The 5 most frequently used formulas in that cohort were analyzed for their nutritional composition. A single general linear model (GLM) was constructed that modeled all quantified nutrients, sphingomyelin, and child age. Voxel-wise correlations were calculated with significance defined as p<0.05 corrected for type 1 error using a cluster based correction approach.
To reduce the number of variables in the model, we examined the inter-variable correlation.

| Compound | Nutritional driver for myelination in the final general linear model | Association with myelination (myelin water fraction) over time in the brain (in particular cerebellum, internal capsule, visual cortex, frontal lobe) |
| --- | --- | --- |
| [Mg] [Magnesium] | identified drivers |  |
| Vitamin B12 | identified drivers |  |
| Iron | identified drivers |  |
| Zinc | identified drivers |  |
| Nc1nc2ncc(CNc3ccc(C(=O)N[C@@H](CCC(=O)O)C(=O)O)cc3)nc2c(=O)[nH]1 [Folic Acid, folic acid] | identified drivers |  |
| [Ca] [Calcium] | identified drivers |  |
| sphingomyelin | nutritional drivers for myelination | significant association with myelination |
| phosphatidylcholine | nutritional drivers for myelination |  |
| [P] [Phosphorus] | identified drivers |  |
| C[N+](C)(C)CCO [Choline] | identified drivers |  |
| CCCCC/C=C\C/C=C\C/C=C\C/C=C\CCCC(=O)O [ARA, arachidonic acid] | identified drivers |  |
| phosphatidyinositol | nutritional drivers for myelination |  |
